The values that follow come from patent publication US20210084902A1, “FUNGICIDAL MIXTURE COMPRISING SUBSTITUTED 3-PHENYL-5-(TRIFLUOROMETHYL)-1,2,4-OXADIAZOLES” (BASF SE, priority 2017, published 2021).

Where two headings read alike, the source gives them in different places.

What all share (format): cell-based
One test concerns Leptosphaeria nodorum. Kind of test: Fungicidal activity against Leptosphaeria nodorum, microtiter plate (MTP) test.
The subject of test [1] is Colletotrichum orbiculare. Description: Fungicidal activity against Colletotrichum orbiculare in the microtiterplate test.
The subject of another test is Botrytis cinerea. Description: Fungicidal activity against Botrytis cinerea, micro titer plate (MTP) test.
The subject of another test is Septoria tritici. Kind of test: Fungicidal activity against Septoria tritici, micro titer plate (MTP) test. As to conditions: for inhibition of growth at […] / inhibition of growth at 1 ppm / inhibition of growth at 4 ppm / inhibition of growth at 16 ppm: Zymoseptoria tritici, 168 h, read-out: Observed efficacy.
The subject of the next test is Pyricularia oryzae. Kind of test: microbe, parasite or virus in culture. Particulars: for Observed efficacy: single compound.
[2] abbreviates: Parastagonospora nodorum, 168 h, 0.063 ppm, read-out: Observed efficacy.
Setting [3] is: Botrytis cinerea, 168 h, component B alone, read-out: Observed efficacy.
The mark [4] stands for this setting: Colletotrichum orbiculare, 0.25 ppm, read-out: Observed efficacy.
The mark [5] stands for this setting: Colletotrichum orbiculare, 1 ppm, read-out: Observed efficacy.
Setting [6] is: Botrytis cinerea, 168 h, component B alone, 0.25 ppm, read-out: Observed efficacy.
Setting [7] is: Table V.4, component B alone, 0.063 ppm.
Setting [8] is: Pyricularia oryzae, 168 h, read-out: Observed efficacy.
[9] abbreviates: Parastagonospora nodorum, 168 h, read-out: Observed efficacy.
Where [10] appears, read: Parastagonospora nodorum, 168 h, 0.25 ppm, read-out: Observed efficacy.
The mark [11] stands for this setting: Table V.4, component B alone, 0.25 ppm.
[12] abbreviates: Table V.4, component B alone, 4 ppm.
The mark [13] stands for this setting: Table V.4, component B alone, 16 ppm.
Where [14] appears, read: Colletotrichum orbiculare, read-out: Observed efficacy.
Setting [15] is: Colletotrichum orbiculare, 0.016 ppm, read-out: Observed efficacy.
The mark [16] stands for this setting: Colletotrichum orbiculare, 0.063 ppm, read-out: Observed efficacy.

Regarding `CNC(=O)C(=N/OC)/C(C)=C\COc1ccn(-c2ccc(Cl)cc2Cl)n1` [A.1.34, (Z,2E)-5-[1-(2,4-dichlorophenyl)pyrazol-3-yl]-oxy-2-methoxyimino-N,3-dimethyl-pent-3-enamide], in the test with Leptosphaeria nodorum (setting [2]), the inhibition of growth at […] worked out at 45%. In addition, the inhibition of growth at 6.3e-05 ppm in test [1] (Colletotrichum orbiculare, 0.000063 ppm, read-out: Observed efficacy) stood at 37%. Besides, the inhibition of growth at 16 ppm in the test on Botrytis cinerea (setting [3]) amounted to 2%. For the same compound, the inhibition of growth at 63 ppm in the test with Botrytis cinerea (Botrytis cinerea, 168 h, component B alone, 63 ppm, read-out: Observed efficacy) was determined as 18%.

As for `Cn1nc(C(F)F)c(C(=O)Nc2ccccc2Oc2ccc(C(F)(F)F)cc2Cl)c1F` [A.3.29, N-[2-[2-chloro-4-(trifluoromethyl)phenoxy]phenyl]-3-(difluoromethyl)-5-fluoro-1-methyl-pyrazole-4-carboxamide], the inhibition of growth at […] in test [1] (setting [4]) worked out at 4%; in the test with Botrytis cinerea (setting [6]) it was 55%; in the test with Septoria tritici (setting [7]), 68%. The values for the inhibition of growth at 1 ppm (in test [1] (setting [5]); in the test with Pyricularia oryzae (setting [8])) were 11% and 14%, respectively.

For `COC(=O)[C@@H](C)N(C(=O)Cc1ccccc1)c1c(C)cccc1C` [Benalaxyl-M, benalaxyl-M], the Observed efficacy in test [1] (1 ppm) turned out to be 2; in the test with Botrytis cinerea (component B alone, 4 ppm) it was 7%; in the test on Pyricularia oryzae (1 ppm) it was 3; in the test on Pyricularia oryzae (4 ppm) it was 12.

For the compound `CCCCNC(=O)n1c(NC(=O)OC)nc2ccccc21` [Benomyl, benomyl], in the test on Leptosphaeria nodorum (setting [9]), the inhibition of growth at 1 ppm turned out to be 15%. In addition, the inhibition of growth at 9 ppm in test [1] (Colletotrichum orbiculare, 9 ppm, read-out: Observed efficacy) is 38%. In the test on Botrytis cinerea (Botrytis cinerea, 168 h, component B alone, 0.016 ppm, read-out: Observed efficacy), the inhibition of growth at […] was 8%.

Turning to `O=C(Nc1ccccc1-c1ccc(Cl)cc1)c1cccnc1Cl` [Boscalid, boscalid], the inhibition of growth at […] in test [1] (setting [4]) was 0%. Further, the inhibition of growth at 1 ppm in test [1] (setting [5]) came to 0%; in the test on Septoria tritici (Table V.4, component B alone) it was 61%. The inhibition of growth at 4 ppm in the test with Pyricularia oryzae (setting [8]) stood at 5%.

Consider `O=C1C2CC=CCC2C(=O)N1SC(Cl)(Cl)Cl` (centres unmarked) [Captan, captan], for which the inhibition of growth at […] stood at 13% in the test on Leptosphaeria nodorum (setting [10]), 21% in test [1] (setting [4]), 20% with Botrytis cinerea (setting [6]) and 22% in the test with Septoria tritici (setting [11]). Besides, the inhibition of growth at 1 ppm with Leptosphaeria nodorum (setting [9]) turned out to be 44%; in the test with Botrytis cinerea (setting [3]), 73%; in the test with Pyricularia oryzae (setting [8]), 53%.

As for `N#Cc1c(Cl)c(Cl)c(Cl)c(C#N)c1Cl` [Chlorothalonil, chlorothalonil], the inhibition of growth at 1 ppm in the test with Leptosphaeria nodorum (setting [9]) was 72%; in the test on Botrytis cinerea (setting [3]), 22%. Further, the inhibition of growth at […] in the test on Septoria tritici (setting [11]) came to 25%.

For the compound `Cc1ccc(-c2c(Cl)nc(C#N)n2S(=O)(=O)N(C)C)cc1` [Cyazofamid, cyazofamid], the inhibition of growth at […] in the test with Leptosphaeria nodorum (setting [10]) was determined as 6%. The inhibition of growth at 4 ppm was 2% with Septoria tritici (setting [12]) and 13% in the test with Pyricularia oryzae (setting [8]). The inhibition of growth at 16 ppm in the test on Septoria tritici (setting [13]) worked out at 8%.

For the compound `Cc1cc(C2CC2)nc(Nc2ccccc2)n1` [Cyprodinil, cyprodinil], the inhibition of growth at 0.004 ppm with Leptosphaeria nodorum (Parastagonospora nodorum, 168 h, 0.004 ppm, read-out: Observed efficacy) was determined as 71%. Moreover, the inhibition of growth at 1 ppm stood at 35% in test [1] (setting [5]), 66% in the test on Botrytis cinerea (setting [3]) and 56% with Pyricularia oryzae (setting [8]). Moreover, the inhibition of growth at 4 ppm in test [1] (setting [14]) was determined as 38%.

As to `CC1COC(Cn2cncn2)(c2ccc(Oc3ccc(Cl)cc3)cc2Cl)O1` (centres unmarked) [Difenoconazol, difenoconazole], the inhibition of growth at […] in the test on Leptosphaeria nodorum (setting [2]) is 41%; in test [1] (setting [15]), 1%; in test [1] (setting [4]) it was 14%; in the test with Septoria tritici (Table V.4, component B alone, 0.016 ppm) it was 4%.

For the compound `COc1ccc(C(=CC(=O)N2CCOCC2)c2ccc(Cl)cc2)cc1OC` [Dimethomorph, dimethomorph], the inhibition of growth at 4 ppm is 41% in the test with Leptosphaeria nodorum (setting [9]), 21% in test [1] (setting [14]), 11% in the test with Septoria tritici (setting [12]) and 8% with Pyricularia oryzae (setting [8]). Moreover, in the test with Pyricularia oryzae (setting [8]), the inhibition of growth at 1 ppm stood at 4%.

In the case of `CC(Cc1ccc(C(C)(C)C)cc1)CN1CCCCC1` (centres unmarked) [Fenpropidin, fenpropidin], the inhibition of growth at 1 ppm came to 38% in the test on Leptosphaeria nodorum (setting [9]); 9% in test [1] (setting [5]); 1% in the test with Septoria tritici (Table V.4, component B alone). Moreover, the inhibition of growth at 4 ppm in test [1] (setting [14]) is 47%; with Botrytis cinerea (Botrytis cinerea, 168 h, component B alone, 4 ppm, read-out: Observed efficacy), 28%.

With `CC(Cc1ccc(C(C)(C)C)cc1)CN1C[C@@H](C)O[C@@H](C)C1` (some centres unmarked) [Fenpropimorph, fenpropimorph], the inhibition of growth at […] came out at 5% in test [1] (setting [4]), 29% in the test with Botrytis cinerea (setting [6]) and 0% in the test with Septoria tritici (setting [11]). For the same compound, the inhibition of growth at 1 ppm in test [1] (setting [5]) came out at 19%; in the test with Pyricularia oryzae (setting [8]), 8%.

`CO/N=C(/C1=NOCCO1)c1ccccc1Oc1ncnc(Oc2ccccc2Cl)c1F` [Fluoxastrobin, fluoxastrobin]: the inhibition of growth at […] in the test on Leptosphaeria nodorum (setting [10]) stood at 38%; in test [1] (setting [16]), 51%; with Septoria tritici (setting [7]) it was 3%; with Septoria tritici (setting [11]), 32%.

Consider `O=C1c2ccccc2C(=O)N1SC(Cl)(Cl)Cl` [Folpet, folpet], for which the inhibition of growth at 1 ppm in the test on Leptosphaeria nodorum (setting [9]) worked out at 40%; in test [1] (setting [5]) it was 20%; with Botrytis cinerea (setting [3]), 13%; in the test with Septoria tritici (Table V.4, component B alone), 70%; in the test with Pyricularia oryzae (setting [8]) it was 14%.

Regarding `CNC(=O)c1ccc(-c2noc(C(F)(F)F)n2)cc1` [I.A, N-methyl-4-[5-(trifluoromethyl)-1,2,4-oxadiazol-3-yl]benzamide], the inhibition of growth at […] was found to be 3% with Leptosphaeria nodorum (setting [2]); 2% in test [1] (Colletotrichum orbiculare, 0.00025 ppm, read-out: Observed efficacy); 2% in test [1] (setting [15]); 71% in test [1] (setting [16]); 3% with Botrytis cinerea (Botrytis cinerea, 168 h, I.A alone, 0.25 ppm, read-out: Observed efficacy); 3% in the test with Septoria tritici (Table V.7, I.A alone, 0.063 ppm). In the test on Septoria tritici (Table V.7, I.A alone, 0.25 ppm), the inhibition of growth at […] was 2%. The inhibition of growth at 1 ppm in the test on Leptosphaeria nodorum (setting [9]) is 6%; in the test on Septoria tritici (Table V.7, I.A alone) it was 0%; with Pyricularia oryzae (setting [8]) it was 6%. The inhibition of growth at 4 ppm was found to be 14% in the test with Leptosphaeria nodorum (setting [9]); 1% in the test on Botrytis cinerea (Botrytis cinerea, 168 h, I.A alone, 4 ppm, read-out: Observed efficacy); 8% in the test with Septoria tritici (Table V.7, I.A alone, 4 ppm); 12% in the test with Pyricularia oryzae (setting [8]). The inhibition of growth at 16 ppm in the test with Leptosphaeria nodorum (Parastagonospora nodorum, 168 h, 16 ppm, read-out: Observed efficacy) was 27%; in the test on Botrytis cinerea (Botrytis cinerea, 168 h, I.A alone, read-out: Observed efficacy) it was 12%; in the test on Septoria tritici (Table V.7, I.A alone, 16 ppm), 19%; with Pyricularia oryzae (setting [8]), 38%. For the same compound, the inhibition of growth at 0.001 ppm in test [1] (Colletotrichum orbiculare, 0.001 ppm, read-out: Observed efficacy) was found to be 2%. Further, the inhibition of growth at 0.004 ppm in test [1] (Colletotrichum orbiculare, 0.004 ppm, read-out: Observed efficacy) was 2%.

As to `CC(C)c1ccc(Cl)cc1CN(C(=O)c1c(C(F)F)nn(C)c1F)C1CC1` [Isoflucypram, N-[(5-chloro-2-isopropyl-phenyl)methyl]-N-cyclopropyl-3-(difluoromethyl)-5 fluoro-1-methyl-pyrazole-4-carboxamide], the inhibition of growth at […] in the test on Botrytis cinerea (setting [6]) came out at 53%; in the test with Septoria tritici (setting [11]) it was 61%. In addition, the inhibition of growth at 1 ppm in the test with Septoria tritici (Table V.4, component B alone) amounted to 62%; in the test on Pyricularia oryzae (setting [8]), 11%.

`CCN(C)C=Nc1cc(Br)c(OC2CCC(C(C)C)CC2)nc1C` (centres unmarked) [K.1.32, N′-[5-bromo-6-(4-isopropylcyclohexoxy)-2-methyl-3-pyridyl]-N-ethyl-N-methyl-formamidine]: the inhibition of growth at […] was 40% in the test with Leptosphaeria nodorum (setting [10]), 26% in test [1] (setting [4]) and 0% in the test with Septoria tritici (setting [11]). Besides, in the test on Septoria tritici (Table V.4, component B alone), the inhibition of growth at 1 ppm was determined as 0%.

Take `CC(O)(Cn1cncn1)c1ccc(Oc2ccc(Cl)cc2)cc1C(F)(F)F` (centres unmarked) [Mefentrifluconazol, mefentrifluconazole]: the Observed efficacy with Leptosphaeria nodorum (0.004 ppm) was 53; in test [1] (0.001 ppm), 1.

As to `CNC(=O)/C(=N/OC)c1ccccc1Oc1ccccc1` [Metominostrobin, metominostrobin], the inhibition of growth at 1 ppm came out at 43% in the test with Leptosphaeria nodorum (setting [9]); 46% in the test with Septoria tritici (Table V.4, component B alone); 59% in the test with Pyricularia oryzae (setting [8]).

For the compound `COc1cc(C)c(C(=O)c2c(OC)ccc(Br)c2C)c(OC)c1OC` [Metrafenon], the Observed efficacy was determined as 1 in the test with Septoria tritici (setting [12]), 1 in the test with Septoria tritici (setting [13]), 5 in the test with Pyricularia oryzae (4 ppm) and 21 in the test with Pyricularia oryzae (16 ppm).
